In ChEMBL document CHEMBL5029170, “Discovery of novel triazole compounds as selective IL-1β releasement inhibitors” (Bioorg Med Chem Lett, 2021):
Activity calls are given as the source filed them. The rule behind the calls is not given here.

Columns and labels:
[1] = Antiinflammatory activity in mouse BMDM cells assessed as inhibition of IL1-beta production relative to control; assay type: functional
[2] = Antiinflammatory activity in mouse BMDM cells assessed as inhibition of TNF-alpha production relative to control; assay type: functional
[3] = Selectivity index, ratio of antiinflammatory activity in mouse BMDM cells assessed as inhibition of TNF-alpha production to antiinflammatory activity in mouse BMDM cells assessed as inhibition of IL1-beta production; assay type: functional
[4] = Selectivity index, ratio of IC50 for antiinflammatory activity in mouse BMDM cells assessed as inhibition of TNF-alpha production to IC50 for antiinflammatory activity in mouse BMDM cells assessed as inhibition of IL1-beta production; assay type: functional
[5] = Antiinflammatory activity in mouse BMDM cells assessed as inhibition of IL1-beta production; assay type: functional, cell-based
[6] = Antiinflammatory activity in mouse BMDM cells assessed as inhibition of TNF-alpha production; assay type: functional, cell-based
[7] = target: NACHT, LRR and PYD domains-containing protein 3 (Mus musculus) (UniProt Q8R4B8); experiment: Inhibition of NLRP3 inflammasome activation in LPS-primed mouse BMDM cells assessed as inhibition of LPS/ATP induced IL-1beta release by ELISA; assay type: cell-based
Sequence of NACHT, LRR and PYD domains-containing protein 3 (Mus musculus) (Q8R4B8 whole entry, the tested form may be a part): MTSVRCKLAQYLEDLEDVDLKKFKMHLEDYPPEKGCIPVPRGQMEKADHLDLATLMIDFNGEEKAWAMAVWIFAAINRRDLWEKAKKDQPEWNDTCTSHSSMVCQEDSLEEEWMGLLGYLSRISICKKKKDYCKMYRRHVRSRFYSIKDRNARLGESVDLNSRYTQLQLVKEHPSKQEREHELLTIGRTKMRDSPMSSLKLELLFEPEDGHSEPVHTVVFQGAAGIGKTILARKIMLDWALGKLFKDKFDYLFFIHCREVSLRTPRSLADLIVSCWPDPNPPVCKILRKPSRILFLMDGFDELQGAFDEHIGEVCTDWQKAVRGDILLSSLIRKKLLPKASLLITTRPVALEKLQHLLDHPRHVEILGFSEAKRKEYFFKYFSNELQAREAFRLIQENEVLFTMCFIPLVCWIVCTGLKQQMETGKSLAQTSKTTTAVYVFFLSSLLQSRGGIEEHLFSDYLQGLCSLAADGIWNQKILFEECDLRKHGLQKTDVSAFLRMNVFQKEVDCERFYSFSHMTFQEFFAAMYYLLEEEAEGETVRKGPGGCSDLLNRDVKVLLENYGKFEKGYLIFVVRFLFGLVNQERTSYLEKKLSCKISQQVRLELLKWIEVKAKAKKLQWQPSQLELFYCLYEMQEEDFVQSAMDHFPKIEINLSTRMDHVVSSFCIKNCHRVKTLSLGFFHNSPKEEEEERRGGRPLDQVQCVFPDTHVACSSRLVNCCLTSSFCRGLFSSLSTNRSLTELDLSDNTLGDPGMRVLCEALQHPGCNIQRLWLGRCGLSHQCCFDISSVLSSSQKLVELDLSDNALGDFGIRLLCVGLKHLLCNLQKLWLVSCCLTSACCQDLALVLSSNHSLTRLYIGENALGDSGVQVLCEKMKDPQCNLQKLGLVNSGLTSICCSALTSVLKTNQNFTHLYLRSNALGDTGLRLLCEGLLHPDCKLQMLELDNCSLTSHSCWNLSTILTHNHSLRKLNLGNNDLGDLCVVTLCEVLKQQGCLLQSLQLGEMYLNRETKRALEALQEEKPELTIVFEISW

[8] = target: NACHT, LRR and PYD domains-containing protein 3 (Mus musculus) (UniProt Q8R4B8); experiment: Inhibition of NLRP3 inflammasome activation in LPS-primed immortalized mouse BMDM cells assessed as inhibition of LPS/ATP induced IL-1beta release by ELISA; assay type: cell-based
[9] = target: NACHT, LRR and PYD domains-containing protein 3 (Mus musculus) (UniProt Q8R4B8); experiment: Inhibition of NLRP3 inflammasome activation in LPS-primed immortalized mouse BMDM cells assessed as reduction in ATP-induced mature IL-1beta expression in supernatant at 5 to 20 uM by western blot analysis; assay type: cell-based; details: dose 5-20 µM
[10] = target: NACHT, LRR and PYD domains-containing protein 3 (Mus musculus) (UniProt Q8R4B8); experiment: Inhibition of NLRP3 inflammasome activation in LPS-primed immortalized mouse BMDM cells assessed as reduction in ATP-induced cleaved caspase-1 expression in supernatant at 5 to 20 uM by western blot analysis; assay type: cell-based; details: dose 5-20 µM
[11] = target: NACHT, LRR and PYD domains-containing protein 3 (Mus musculus) (UniProt Q8R4B8); experiment: Inhibition of NLRP3 inflammasome activation in LPS-primed immortalized mouse BMDM cells assessed as effect on ATP-induced NLRP3 level in cell lysate at 5 to 20 uM by western blot analysis; assay type: subcellular; details: dose 5-20 µM
[12] = target: NACHT, LRR and PYD domains-containing protein 3 (Mus musculus) (UniProt Q8R4B8); experiment: Inhibition of NLRP3 inflammasome activation in LPS-primed immortalized mouse BMDM cells assessed as effect on ATP-induced pro-IL-1beta level in cell lysate at 5 to 20 uM by western blot analysis; assay type: subcellular; details: dose 5-20 µM

SMILES	inhibition (INH) [1]	inhibition (INH) [2]	Selectivity Index [3]	also measured
NC(=O)c1nnn(Cc2cc(Cl)c(C(=O)c3ccc(Cl)cc3)c(Cl)c2)c1NC(=O)c1ccccc1	46.29%	86.58%	0.53	–
NC(=O)c1nnn(Cc2ccc(C(=O)c3ccccc3)cc2)c1N	1.36%	-16.37%	–	–
N#Cc1nnn(Cc2cc(Cl)c(C(=O)c3ccc(Cl)cc3)c(Cl)c2)c1N	64.01%	82.32%	0.78	–
CN1CCN(C(=O)c2nnn(Cc3cc(Cl)c(C(=O)c4ccc(Cl)cc4)c(Cl)c3)c2N)CC1	36.62%	97%	0.38	–
CN(C)C(=O)c1nnn(Cc2cc(Cl)c(C(=O)c3ccc(Cl)cc3)c(Cl)c2)c1N	43.42%	57.9%	0.75	–
NC(=O)c1nnn(Cc2ccc3ccccc3c2)c1N	-26.65%	2.5%	–	–
Nc1c(C(=O)N2CCCC2)nnn1Cc1cc(Cl)c(C(=O)c2ccc(Cl)cc2)c(Cl)c1	33.52%	51.44%	0.65	–
CNC(=O)c1nnn(Cc2cc(Cl)c(C(=O)c3ccc(Cl)cc3)c(Cl)c2)c1N	58.34%	46.35%	1.26	–
NC(=O)c1nnn(Cc2cc(Cl)c(C(=O)c3ccc(Cl)cc3)c(Cl)c2)c1NC(=O)c1ccco1	56.91%	21.44%	2.65	–
CCNC(=O)c1nnn(Cc2cc(Cl)c(C(=O)c3ccc(Cl)cc3)c(Cl)c2)c1N	53.9%	75.89%	0.71	–
CC(C)C(=O)N(C(=O)C(C)C)c1c(C(N)=O)nnn1Cc1cc(Cl)c(C(=O)c2ccc(Cl)cc2)c(Cl)c1	-22.3%	20.24%	–	–
Nc1c(C(=O)NCCO)nnn1Cc1cc(Cl)c(C(=O)c2ccc(Cl)cc2)c(Cl)c1	72.28%	15.01%	4.85	–
CCCC(=O)Nc1c(C(N)=O)nnn1Cc1cc(Cl)c(C(=O)c2ccc(Cl)cc2)c(Cl)c1	74.89%	47.9%	1.56	Ratio IC50 [4]: 2.25; IC50 [5]: 11.9 µM; IC50 [6]: 26.8 µM
NC(=O)c1nnn(Cc2ccc(-c3ccccc3)cc2)c1N	-18.17%	0.39%	–	–
NC(=O)c1nnn(Cc2cc(Cl)c(C(=O)c3ccc(Cl)cc3)c(Cl)c2)c1N [CARBOXYAMIDOTRIAZOLE]	71.94%	87.54%	0.82	–
NC(=O)c1nnn(Cc2cc(Cl)c(C(=O)c3ccc(Cl)cc3)c(Cl)c2)c1NC(=O)C1CC1	57.13%	73.51%	0.78	–
CN(C)c1c(C(N)=O)nnn1Cc1cc(Cl)c(C(=O)c2ccc(Cl)cc2)c(Cl)c1	39.86%	45.89%	0.87	–
CC(C)(C)C(=O)Nc1c(C(N)=O)nnn1Cc1cc(Cl)c(C(=O)c2ccc(Cl)cc2)c(Cl)c1	68.75%	92.89%	0.74	–
NC(=O)c1nnn(Cc2ccccc2)c1N	-6.29%	-12.61%	–	–

SMILES	inhibition (INH) [1]	inhibition (INH) [2]	Selectivity Index [3]	also measured
Nc1c(C(=O)NCc2ccccc2)nnn1Cc1cc(Cl)c(C(=O)c2ccc(Cl)cc2)c(Cl)c1	21.22%	7.59%	2.8	–
Nc1c(C(=O)NCCOCCO)nnn1Cc1cc(Cl)c(C(=O)c2ccc(Cl)cc2)c(Cl)c1	62%	5.3%	1.12	–
CCC(CC)C(=O)Nc1c(C(N)=O)nnn1Cc1cc(Cl)c(C(=O)c2ccc(Cl)cc2)c(Cl)c1	77.01%	5.73%	13.43	Ratio IC50 [4]: >12.37; IC50 [5]: 8.08 µM; IC50 [6]: > 100 µM
CC(C)C(=O)Nc1c(C(N)=O)nnn1Cc1cc(Cl)c(C(=O)c2ccc(Cl)cc2)c(Cl)c1	30.69%	7.91%	3.88	–
NC(=O)c1nnn(Cc2cc(Cl)c(C(=O)c3ccc(Cl)cc3)c(Cl)c2)c1NC(=O)CCBr	87.06%	81.52%	1.07	Ratio IC50 [4]: 1.96; IC50 [5]: 4.97 µM; IC50 [6]: 9.77 µM
Nc1c(C(=O)NCCOCCOCCO)nnn1Cc1cc(Cl)c(C(=O)c2ccc(Cl)cc2)c(Cl)c1	42.65%	8.04%	5.3	–
NC(=O)c1nnn(Cc2cc(Cl)c(C(=O)c3ccc(Cl)cc3)c(Cl)c2)c1NC(=O)CCCBr	53.09%	-2.72%	19.51	–
COC(=O)c1nnn(Cc2cc(Cl)c(C(=O)c3ccc(Cl)cc3)c(Cl)c2)c1N	18.59%	-6.83%	2.72	–
CNc1c(C(N)=O)nnn1Cc1cc(Cl)c(C(=O)c2ccc(Cl)cc2)c(Cl)c1	57.66%	15.53%	3.71	Ratio IC50 [4]: >18.22; inhibition [7]: Dose-Dependent Effect; inhibition [8]: Dose-Dependent Effect; inhibition [9]: Active; IC50 [5]: 5.49 µM; IC50 [6]: > 100 µM; inhibition [10]: Active; inhibition [11]: inactive; inhibition [12]: inactive
NC(=O)c1cn(Cc2cc(Cl)c(C(=O)c3ccc(Cl)cc3)c(Cl)c2)nn1	50.67%	30.18%	1.68	–
NC(=O)c1nnn(Cc2cc(Cl)c(C(=O)c3ccc(Cl)cc3)c(Cl)c2)c1N(C(=O)C1CC1)C(=O)C1CC1	-36.41%	48.7%	–	–
CCNc1c(C(N)=O)nnn1Cc1cc(Cl)c(C(=O)c2ccc(Cl)cc2)c(Cl)c1	57.89%	57.8%	1	–
CCC(=O)N(C(=O)CC)c1c(C(N)=O)nnn1Cc1cc(Cl)c(C(=O)c2ccc(Cl)cc2)c(Cl)c1	-23.37%	11.95%	–	–
CC(=O)c1nnn(Cc2cc(Cl)c(C(=O)c3ccc(Cl)cc3)c(Cl)c2)c1N	39.49%	49.4%	0.8	–
CCC(=O)Nc1c(C(N)=O)nnn1Cc1cc(Cl)c(C(=O)c2ccc(Cl)cc2)c(Cl)c1	47.39%	14.25%	3.33	–
Nc1c(C(=O)N2CCCCC2)nnn1Cc1cc(Cl)c(C(=O)c2ccc(Cl)cc2)c(Cl)c1	27.12%	52.43%	0.51	–
CC(C)(C)C(=O)N(C(=O)C(C)(C)C)c1c(C(N)=O)nnn1Cc1cc(Cl)c(C(=O)c2ccc(Cl)cc2)c(Cl)c1	-8.41%	17.92%	–	–
CCC(CC)C(=O)N(C(=O)C(CC)CC)c1c(C(N)=O)nnn1Cc1cc(Cl)c(C(=O)c2ccc(Cl)cc2)c(Cl)c1	-22.74%	12.68%	–	–
